Reference: patent publication US10232021B2, “Calcitonin mimetics for treating diseases and disorders” (KEYBIOSCIENCE AG, priority 2013, dated 2019)
Bridges are numbered along the chain shown (N, C = ends).

Columns and labels:
Amylin Receptor (AMY-R) [1] = biological target: T1, Amylin Receptor (AMY-R) (Homo sapiens, UniProt P30988); test: PathHunter β-arrestin assay on the amylin receptor; assay type: cell-based; settings: CHO-K1 CALCR+RAMP3 cells
T1 construct: host or cells: CHO-K1
T1 sequence (P30988 25-474): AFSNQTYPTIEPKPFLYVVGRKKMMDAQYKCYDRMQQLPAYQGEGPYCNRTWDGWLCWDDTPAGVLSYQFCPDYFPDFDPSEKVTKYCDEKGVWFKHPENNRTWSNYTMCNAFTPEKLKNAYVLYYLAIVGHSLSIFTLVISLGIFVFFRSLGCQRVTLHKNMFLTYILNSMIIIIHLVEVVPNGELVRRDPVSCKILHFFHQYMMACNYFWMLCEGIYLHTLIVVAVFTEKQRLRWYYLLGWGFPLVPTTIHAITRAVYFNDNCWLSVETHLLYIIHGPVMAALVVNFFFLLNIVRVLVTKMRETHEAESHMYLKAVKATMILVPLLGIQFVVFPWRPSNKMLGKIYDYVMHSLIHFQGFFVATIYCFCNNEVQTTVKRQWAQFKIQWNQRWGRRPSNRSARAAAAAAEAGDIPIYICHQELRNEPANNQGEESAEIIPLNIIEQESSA
T1 sequence (O60896 24-148 partner): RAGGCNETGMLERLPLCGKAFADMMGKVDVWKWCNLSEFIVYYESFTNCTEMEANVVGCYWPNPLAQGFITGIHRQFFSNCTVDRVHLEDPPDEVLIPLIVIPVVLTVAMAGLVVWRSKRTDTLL
Protocol: (§1) The following cell lines expressing the calcitonin, amylin and CGRP receptors were purchased and cultured according to the manufacturer's instructions. • 1. Calcitonin Receptor (CTR): U20S-CALCR from DiscoveRx (Cat. No.: 93-0566C3). • 2. Amylin Receptor (AMY-R): CHO-K1 CALCR+RAMP3 from DiscoveRx (Cat. No.: 93-0268C2). • 3. CGRP Receptor (CGRP-R): CHO-K1 CALCRL+RAMP1 from DiscoveRx (Cat. No.: 93-0269C2).
In independent bioassays, CTR, AMY-R and CGRP-R cells were treated with for the indicated timepoints with increasing doses of sCT, UGP-302/KBP-042 or the KBPs identified in Table 3 (0, 0.001, 0.01, 0.1, 1, 10, and 100 nM). […]
In this system, the GPCR is fused in frame with the small enzyme fragment ProLink™ and co-expressed in cells stably expressing a fusion protein of β-Arrestin and the larger, N-terminal deletion mutant of β-gal (called enzyme acceptor or EA). […] This interaction leads to an increase in enzyme activity that can be measured using chemiluminescent PathHunter® Detection Reagents.
The assay was performed in white 384 well plates (Greiner Bio-One, 784080). […] To quantify the GPCR-mediated β-arrestin recruitment the Pathhunter™ Detection Kit (93-0001, DiscoverX) was used and assay performed accordingly to the manufacturer's instructions.

[2] = biological target: T2, Calcitonin Receptor (CTR) (Homo sapiens, UniProt P30988); test: Competitive ligand binding against 125I-sCT on CTR cells; settings: U20S-CALCR cells; 0.1 nM 125I-sCT; 60 min, 37° C.
T2 construct: host or cells: U2OS
T2 sequence (P30988 25-474): T1 sequence (P30988 25-474)
Excerpt: as §1
(§2) Corresponding to the beta-arrestin induction experiments, we performed competitive ligand binding experiments using the cells expressing the CTR and the AMY-R. In studying ligand binding on cells, 15.000 CTR or AMY-R cells were seeded in 96-well plate and cells were treated with 0.1 nM ^125I-conjugated sCT with or without the presence of unlabelled KBP in increasing doses for 60 min at 37° C. After incubation the supernatant was removed and cells were washed twice in 200 μl PBS. The cells were lysed using RIPA‡ buffer (30 mM M NaCl, 50 mM Tris-HCl, 5 mM EDTA, 1% Deoxycholic acid, […], Protease inhibitor tablet mini (1 tablet:10 ml)) and lysates as well were collected for measurement on a γ-counter.

Amylin Receptor (AMY-R) [3] = biological target: T1, Amylin Receptor (AMY-R); test: Competitive ligand binding against 125I-sCT on AMY-R cells; settings: CHO-K1 CALCR+RAMP3 cells; 0.1 nM 125I-sCT; 60 min, 37° C.
Excerpt: as §1, §2

[4] = Three-week treatment of ZDF rats: fasting plasma glucose and HbA1c; assay type: in vivo, male ZDF (fa/fa) rats; settings: 5 μg/kg/day subcutaneously once daily, 3 weeks
Protocol: To assess the effects of the peptides in relation to regulation of blood glucose levels, male ZDF rats, which are the gold standard model of Type 2 Diabetes were treated for 3 weeks with the 3 most promising KBPs (023, 056 and 088) and an active comparator (UGP302/KBP-042). Male ZDF (fa/fa) rats were obtained at the age of 7 weeks from Charles River Laboratories (Kisslegg, Deutschland). All animals were housed at the animal facility at Nordic Bioscience with a constant temperature (21-23° C.) and relative humidity (55-65%) on a 12 h light/dark cycle with free access to Purina 5008 rat chow (Brogaarden, Lynge, Denmark) and tap water. At the age of 8 weeks, the animals were randomized into five groups of 8 rats each based upon fasting blood glucose and body weight (Vehicle (saline), UGP302/KBP-042 5 μg/kg/day, KBP-023 5 μg/kg/day, KBP-056 5 μg/kg/day and KBP-088 5 μg/kg/day) and dosing was done subcutaneously once daily. The animals were treated for a total of 3 weeks to assess the effect of the peptides on fasting blood glucose. Blood glucose was monitored using the Accu-Check® Avia monitoring system (Roche Diagnostics, Rotkreuz, Switzerland) and HbA1c levels by the DCA Vantage™ Analyzer (Siemens Healthcare Diagnostics, Deerfield, Ill.).

[5] = Single-dose food intake in obese High-Fat-Diet rats; assay type: in vivo; settings: single subcutaneous dose 1.25, 2.5, 5 μg/kg; obese rats fasted overnight
Protocol: Rats were fed a High-Fat-Diet for 14 weeks prior to the experiment to induce obesity.
Further similar studies were undertaken over different time periods and with different peptides and the results are seen in FIG. 10 and FIGS. 11A-11B. The ability of KBP089 to suppress food intake over 72 hours was compared to that of KBP042 as control and the results are seen in FIG. 10.

## KBP-088: SEQ ID NO: 12; AcCSNLSTCMLGRLSQELHRLQTFPKTDVGANAP-NH2, Cys1-Cys7 disulphide bridge (Ac-CSNLSTCMLGRLSQELHRLQTFPKTDVGANAP-NH2; disulfide 1-7; SMILES CSCC[C@H](NC(=O)[C@@H]1CSSC[C@H](NC(C)=O)C(=O)N[C@@H](CO)C(=O)N[C@@H](CC(N)=O)C(=O)N[C@@H](CC(C)C)C(=O)N[C@@H](CO)C(=O)N[C@@H]([C@@H](C)O)C(=O)N1)C(=O)N[C@@H](CC(C)C)C(=O)NCC(=O)N[C@@H](CCCNC(=N)N)C(=O)N[C@@H](CC(C)C)C(=O)N[C@@H](CO)C(=O)N[C@@H](CCC(N)=O)C(=O)N[C@@H](CCC(=O)O)C(=O)N[C@@H](CC(C)C)C(=O)N[C@@H](Cc1c[nH]cn1)C(=O)N[C@@H](CCCNC(=N)N)C(=O)N[C@@H](CC(C)C)C(=O)N[C@@H](CCC(N)=O)C(=O)N[C@H](C(=O)N[C@@H](Cc1ccccc1)C(=O)N1CCC[C@H]1C(=O)N[C@@H](CCCCN)C(=O)N[C@H](C(=O)N[C@@H](CC(=O)O)C(=O)N[C@H](C(=O)NCC(=O)N[C@@H](C)C(=O)N[C@@H](CC(N)=O)C(=O)N[C@@H](C)C(=O)N1CCC[C@H]1C(N)=O)C(C)C)[C@@H](C)O)[C@@H](C)O)
Amylin Receptor (AMY-R) [1]
  activation of the AMY-R (β-arrestin dose-response): more potent that the classical AMY-R agonist sCT
[2]
  competitive binding affinity on the CTR: better than the other ligands
Amylin Receptor (AMY-R) [3]
  competitive binding affinity on the AMY-R: better than the other ligands, particularly on the AMY-R
[4]
  HbA1c: highly active
  fasting plasma glucose (FPG): highly active
[5]
  food intake, 0-4 hours: led to a reduction in food intake
  food intake, 4-24 hours: the effect was maintained to 24 hours
  food intake, 24-48 hours: only KBP-089 led to a reduction in food intake
